BindingDB's records for doi:10.1124/mol.59.3.420 (The R. W. Johnson Pharmaceutical Research Institute, 2001)

Columns and labels:
Histamine H4 receptor = Histamine H4 receptor (Homo sapiens, UniProt Q9H3N8)
Histamine H3 receptor = Histamine H3 receptor (Homo sapiens, UniProt Q9Y5N1)
Sequence of Histamine H3 receptor (Q9Y5N1 whole entry): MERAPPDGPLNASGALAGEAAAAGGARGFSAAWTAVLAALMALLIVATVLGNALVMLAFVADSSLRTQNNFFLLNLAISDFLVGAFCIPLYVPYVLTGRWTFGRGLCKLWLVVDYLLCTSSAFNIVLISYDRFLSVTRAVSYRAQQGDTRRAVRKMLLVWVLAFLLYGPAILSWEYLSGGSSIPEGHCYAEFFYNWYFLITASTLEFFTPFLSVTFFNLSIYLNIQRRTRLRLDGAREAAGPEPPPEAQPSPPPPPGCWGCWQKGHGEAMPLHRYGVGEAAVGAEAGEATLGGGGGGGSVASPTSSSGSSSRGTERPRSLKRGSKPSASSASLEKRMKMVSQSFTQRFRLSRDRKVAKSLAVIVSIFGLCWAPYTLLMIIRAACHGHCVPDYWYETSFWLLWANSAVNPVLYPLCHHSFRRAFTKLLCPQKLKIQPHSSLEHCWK

| SMILES | Ki (Histamine H4 receptor) [nM] | Ki (Histamine H3 receptor) [nM] |
| --- | --- | --- |
| CN/C(=N/CCSCc1nc[nH]c1C)NC#N | > 10000 | – |
| CN/C([CH-][N+](=O)[O-])=[NH+]\CCSCc1ccc(CN(C)C)o1 | > 10000 | > 10000 |
| C[C@@H](N)Cc1c[nH]cn1 | 146 | – |
| CNC(=S)NCCCCc1cnc[nH]1 [1-[4-(1H-imidazol-5-yl)butyl]-3-methylthiourea] | – | 84 |
| N=C(N)SCCc1cnc[nH]1 [2-(3H-imidazol-4-yl)ethylsulfanylmethanimidamide] | 2.7 | 0.3 |
| Cc1[nH]cnc1CSCCNC(=N)NCCCc1c[nH]cn1 [2-[3-(1H-imidazol-5-yl)propyl]-1-(2-{[(5-methyl-1H-imidazol-4-yl)methyl]sulfanyl}ethyl)guanidine] | 12.3 | 67 |
| CNCCc1c[nH]cn1 [N(alpha)-Methylhistamine] | 23 | 0.5 |
| NC(=NCc1ccc(Cl)cc1)SCCCc1cnc[nH]1 [VUF 9153] | 12.8 | – |

The remaining lines, values ahead:

| Ki (Histamine H4 receptor) [nM] | Ki (Histamine H3 receptor) [nM] | SMILES |
| --- | --- | --- |
| 9 | – | c1nc(CC2CCNCC2)c[nH]1 [4-(1H-imidazol-4-ylmethyl)piperidine] |
| > 10000 | – | CN1CCC(=C2c3ccccc3C=Cc3ccccc32)CC1 [5-(1-methylpiperidylidene-4)-5H-dibenzo(a,d)cyclopheptene] |
| > 10000 | – | N#Cc1ccc(OCCCN2CCCCC2)cc1 [UCL-2138] |
| – | 825 | CN(C)CCCSC(=N)N [[3-(carbamimidoylsulfanyl)propyl]dimethylamine] |
